Patent US10766888B1, “HMOX1 inducers” (Mitobridge Inc., priority 2019, dated 2020)
Converted amounts (≈) assume the structure as drawn.

Columns and labels:
Kinetic solubility = type: physicochemical; conditions: Dulbecco's phosphate buffer saline (DPBS), aqueous buffer, kinetic from dmso stock, DPBS pH 7.4, 25° C., 200 μM test compound
Summary of the method: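 Compound from 10 mM DMSO stock diluted to 200 μM final in DPBS pH 7.4 and, separately, in DMSO, in duplicate. Shaken 16 h at 25 °C, then centrifuged 20 min at 25 °C. Supernatant analysed by HPLC.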

Human BACH1 = molecular target: T1, Human BACH1 (Homo sapiens, UniProt O14867); test: Microscale thermophoresis (MST) assay / Bach 1 binding assay; conditions: 10 nM fluorescently labeled BACH1(aa179-736), 25° C.
T1 construct: 10×HIS-GP-BACH1(aa179-736)-Thrombin-FLAG; 10xHis (N); GP linker (Gly-Pro) (N); Thrombin cleavage site (C); FLAG (C); host or cells: Sf9 insect cells
T1 sequence (O14867 179-736): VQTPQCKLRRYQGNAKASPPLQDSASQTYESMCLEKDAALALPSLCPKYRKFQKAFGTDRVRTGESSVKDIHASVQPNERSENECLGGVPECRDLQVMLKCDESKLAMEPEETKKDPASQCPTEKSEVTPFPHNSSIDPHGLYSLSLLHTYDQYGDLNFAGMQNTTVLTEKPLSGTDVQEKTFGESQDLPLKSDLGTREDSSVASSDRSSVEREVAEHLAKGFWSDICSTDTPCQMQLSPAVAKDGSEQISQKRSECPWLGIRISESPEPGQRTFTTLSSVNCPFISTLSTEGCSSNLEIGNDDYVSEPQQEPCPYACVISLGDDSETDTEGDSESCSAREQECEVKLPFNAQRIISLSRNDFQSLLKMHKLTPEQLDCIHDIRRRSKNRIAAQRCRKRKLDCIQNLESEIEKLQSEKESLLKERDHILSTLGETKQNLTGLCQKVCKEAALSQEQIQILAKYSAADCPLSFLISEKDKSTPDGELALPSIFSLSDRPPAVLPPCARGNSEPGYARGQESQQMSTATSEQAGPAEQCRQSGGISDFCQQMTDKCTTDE
Procedure: Example 146. Microscale Thermophoresis (MST) Assay/Bach 1 Binding Assay
Outline of Protein Expression/Production
Human BACH1 (construct-ID: 10×HIS-GP-BACH1(aa179-736)-Thrombin-FLAG) was expressed in Sf9 insect cells. Protein purification was performed using affinity chromatography, followed by size-exclusion chromatography. Quality of resulting protein was judged using SDS-PAGE analysis.
The MST technology is based on measurement of protein movement along a temperature gradient. Thereby, fluorescently labeled protein is loaded into capillaries, where an infrared laser heats a small volume. Before and during heating, fluorescent intensity is measured at the site of irradiation and the loss of fluorescence in the IR laser focus is quantified.
Two major factors contribute to change of fluorescence signal. First of all, the so-called TRIC (Temperature Related Intensity Change) effect is caused by the temperature-dependency of fluorophore's quantum yield. Herein, the extent of the temperature dependence depends on the chemical environment, which may be changed by the binding of a ligand (e.g. compound, peptide) to the target. Moreover, Kd value between ligand and target can depend on temperature. Second, thermophoresis, which is defined as movement of fluorescent molecules along temperature gradient, is a major contributor to change of fluorescence. Hereby, protein movement along the gradient depends on hydrodynamic radius, charge and hydration shell. These properties can change upon association of the labeled protein with another species, e.g. compound. Thereby, MST detects the differences in protein movement with increasing ligand concentration: from this, the fraction of ligand bound protein and a Kd value can be determined.
For Kd determination of compounds binding BACH1, the following protocol was applied: 10×HIS-GP-BACH1(aa179-736)-Thrombin-FLAG (expressed and purified at Proteros) was fluorescently labeled via its lysine-residues (2nd gen NHS-NT.647 dye).
Experiments were performed using the experimental device Monolith NT.115 Pico, NanoTemper Technologies, with MST power set to medium and excitation power set to 2% at a reaction temperature of 25° C.
10 nM fluorescently labeled BACH1 was applied to reaction buffer containing 50 mM HEPES pH 8.0, 100 mM NaCl, 5% glycerol, 0.05% Tween20 and 1 mM DTT in a reaction volume of 8 μL using Monolith NT.115 Premium Capillaries. Compounds were applied at a maximal concentration of 103 μM with 15 subsequent factor 2 dilutions.

HMOX1 = HMOX1 mRNA expression in HepG2 cells (Nanostring); type: cell-based, human; conditions: 24 hours treatment, mRNA fold change vs DMSO
Procedure: Example 147. HMOX1 Inducers of the Invention Strongly Increase In Vitro Expression of HMOX1
RNA Isolation and Quantification of Gene Expression
HepG2 cells were seeded at 250 k/well in 12-well tissue culture plates coated with collagen (collagen I, rat tail (thin plate coating); ENZO Life Sciences) for approximately 24 hours. The seeded cells were then treated with dose titration of the compound of Example 17 or dimethyl fumarate (DMF) (a Nrf2 activator; Fisher Scientific) via media change, with biological triplicates performed for each treatment. After approximately 24 hours of treatment, cells were visually inspected to confirm that no toxicity occurred with compound treatment. The treated cells were washed with PBS, aspirated, parafilmed and frozen at −80° C. prior to RNA isolation. RNA was isolated using Machery-Nagel isolation kit (NucleoSpin® RNA: catalog 740955.250) and then quantitated using ThermoFisher Nanodrop.
RNA was diluted for Nanostring gene expression analysis. […]
The relative mRNA levels of the HMOX1 gene in HepG2 cells treated with the compound of Example 17 or DMF were measured according to the methods described above. […]

| solubility at 16 h (Kinetic solubility) [µM] | Kd (Human BACH1) [nM] | Structure (SMILES) | HMOX1 expression compared with DMF (in words) (HMOX1) |
| --- | --- | --- | --- |
| 11.6 (≈ 4.59 µg/mL) | 250 | Cn1c(Nc2nc3ccccc3o2)nc2cc(C(=O)NCCOCCO)ccc21 [Example 17, 2-(benzo[d]oxazol-2-ylamino)-N-(2-(2-hydroxyethoxy)ethyl)-1-methyl-1H-benzo[d]imidazole-5-carboxamide] | much more strongly than DMF |
| 9.7 (≈ 4.26 µg/mL) | 250 | COCCNC(=O)c1ccc2c(c1)nc(Nc1nc3ccc(OCCOC)cc3o1)n2C [Example 56, 2-((6-(2-methoxyethoxy)benzo[d]oxazol-2-yl)amino)-N-(2-methoxyethyl)-1-methyl-1H-benzo[d]imidazole-5-carboxamide] | – |
